Data as given in patent US20250066386A1, “INHIBITORS OF KRAS” (BIOMEA FUSION, INC., priority 2022, published 2025).
Read-outs that look alike come from different tables or passages of the source.

Key:
[1] = system: human KRAS G12D mutated cell line SUIT-2; assay: KRas G12D in vitro inhibitory activity: cell proliferation, CellTiter-Glo; type: cell-based; details: 7 day inhibition of cell proliferation, medium and compound renewed on day 3, CellTiter-Glo luminescence
Excerpt: (§1) The present example evaluates the ability of compounds provided herein to inhibit proliferation of KRAS mutant cells.
The proliferation inhibitory effect was investigated in the human KRAS G12D mutated cell line SUIT-2 (Iwamura et al., 1987, Jpn. J. Cancer Res. 78.54-62; JCRB catalog no. JCRB1094). Cells were maintained in RPMI-1640 medium (ThermoFisher catalog no. 61870036) supplemented with 10% of Heat Inactivated FBS (ThermoFisher catalog no. A31605) and 1% Pen-Strep (ThermoFisher catalog no. 10378016) and cultured at 37° C. in a humidified incubator with 5% CO2. Cells were grown by adhering to culture flasks, and maintained at 70%-80% confluency.
(§2) ATP is present in all metabolically active cells and is considered as a marker for viable cells. The number of metabolically active live cells in culture was determined using the CellTiter-Glo kit (Promega catalog no. G7572), an ATP monitoring system based on the production of luminescence by the reaction of ATP with added UltraGlo® recombinant luciferase (Kawano et al., 2016, PLOS One, 8; 11(7):e0158888), according to the supplier's experimental recommendations. The cell proliferation assay was based on a 96 well plate format.
(§3) Test compounds were dissolved at 10 mM in DMSO (Sigma catalog no. D8418; purity >99.9%) and stored at −20° C. Eight concentrations of test compound were assessed in duplicate in an individual test occasion in parallel in the selected cell lines. MRTX-849 and AMG-510 were used as reference compounds and tested in duplicate at eight concentrations. 100% of proliferation is represented by the untreated cells (0.1% DMSO).
(§4) On the day of the experiment (TO), cells were detached with TrypLE (ThermoFisher catalog no. 12604054) quantified using the cell viability analyzer NucleoCounter (Chemometec NC-200) and resuspended in fresh medium at a cell density of about 1000 cells per 200 μL medium. 200 μL of cell suspension were added to each well of a 96 well plate.
Two 2 hours after seeding cells, compounds were added at desired concentrations using a D300e compound dispenser (Life Sciences Tecan D300) with shaking after each compound addition. Assay plates were incubated at 37° C. in a humidified incubator with 5% CO2.
On day 3 (T3), 150 μL of growth media was removed from each well of the assay plates and replaced with 150 uL fresh growth media, and fresh compounds added using a D300e compound dispenser (Life Sciences Tecan D300) at desired concentrations with shaking between each compound addition. […] Luminescence was read using a GloMax GM300 plate reader (Promega) using the luminescence for 96 well plate standard protocol. […]
(§5) Results were analyzed by GraphPad (Prism) and IC50 values were calculated by non-linear regression using four parameter-logistic equation. […]

[2] = system: human KRAS G12C mutated cell line MIA PaCa-2; assay: KRas G12C in vitro inhibitory activity: cell proliferation, CellTiter-Glo; type: cell-based
Excerpt: as §1
The inhibitory effect on cell proliferation was investigated in the human KRAS G12C mutated cell line MIA PaCa-2 (Yunis et al., 1977, Int. J. Cancer 19(1):128-135; ATCC catalog no. CRL-1420). Cells were maintained in RPMI-1640 medium (ThermoFisher catalog no. 61870036) supplemented with 10% of Heat Inactivated FBS (ThermoFisher catalog no. A31605) and 1% Pen-Strep (ThermoFisher catalog no. 10378016) and cultured at 37° C. in a humidified incubator with 5% CO2. Cells were grown by adhering to culture flasks, and maintained at 70%-80% confluency.
as §2
as §3, with “(0.2%” for “(0.1%”
as §4, with “12604054),” for “12604054)”, “analyser” for “analyzer”, “5000” for “1000”
Two hours after seeding cells, compounds were added at desired concentrations using a D300e compound dispenser (Life Sciences Tecan D300) with shaking after each compound addition. Assay plates were incubated at 37° C. in a humidified incubator with 5% CO2.
(§6) To measure 3 day inhibition of cell proliferation on day 3 (T3), assay plates were equilibrated to room temperature for approximately 15 min, and the Promega CellTiterGlo® reagent was added at 40 μL/well. Contents were mixed for 5 min on an orbital shaker to induce cell lysis, and then incubated at room temperature for an additional 10 min in the dark to stabilize the luminescent signal. Luminescence was read using a GloMax GM300 plate reader (Promega) using the luminescence for 96 well plate standard protocol.
as §6, with “measure 7” for “measure 3”, “(T3), 150 μL of growth media was removed from each well of the assay plates and replaced with 150 uL fresh growth media, and fresh compounds added using a D300e compound dispenser (Life Sciences Tecan D300) at desired concentrations with shaking between each compound addition. Assay plates were incubated at 37° C. in a humidified incubator with 5% CO2. On day 7 (T7)” for “(T3),”
Data was expressed as % of inhibition compared to the 0.2% DMSO negative no drug control, and is calculated as follows: % inhibition=100−[(RLU sample)×100/(RLU average controls*)], where * indicates the average for 0.2% DMSO.
as §5

[3] = 18-membered ring, DCM, 25.0 °C
[4] = Homo sapiens, MIA PaCa-2, 72 h, 3 day inhibition of cell proliferation, CellTiter-Glo luminescence, read-out: MIA PaCa-2 Day 3 IC50
[5] = Homo sapiens, MIA PaCa-2, 7 day inhibition of cell proliferation, medium and compound renewed on day 3, CellTiter-Glo luminescence, read-out: MIA PaCa-2 Day 7 IC50

Row | SMILES | IC50 [1] | IC50 [2, 4] | IC50 [2, 5] | other results
1 | CCn1c(-c2cccnc2[C@H](C)OC)c2c3cc(ccc31)-c1cccc(c1)C[C@H](NC(=O)[C@H](C(C)C)N(C)C(=O)[C@H]1CCN(C(C)C#CC(=O)N(C)C)C1)C(=O)N1CCC[C@H](N1)C(=O)OCC(C)(C)C2 (stereo partly shown) [Compound 5] | > 100 nM | 1 to 10 nM | 10 to 100 nM | 
2 | CCn1c(-c2cccnc2[C@H](C)OC)c2c3cc(ccc31)-c1cccc(c1)C[C@H](NC(=O)[C@H](C(C)C)N(C)C(=O)[C@H]1CCN(C(=O)C#CC(=O)N(C)C)C1)C(=O)N1CCC[C@H](N1)C(=O)OCC(C)(C)C2 (atropisomer, axis not shown) [Compound 4] | > 100 nM |  | > 100 nM | 
3 | CCn1c(-c2cccnc2[C@H](C)OC)c2c3cc(ccc31)-c1cccc(c1)C[C@H](NC(=O)[C@H](C(C)C)N(C)C(=O)[C@H]1CCN(CC#CC(=O)N(C)C)C1)C(=O)N1CCC[C@H](N1)C(=O)OCC(C)(C)C2 (atropisomer, axis not shown) [Compound 3, (3S)-1-(4-(dimethylamino)-4-oxobut-2-yn-1-yl)-N-((2S)-1-(((6^3S,4S)-1^1-ethyl-1^2-(2-((S)-1-methoxyethyl)pyridin-3-yl)-10,10-dimethyl-5,7-dioxo-6^1,6^2,6^3,6^4,6^5,6^6-hexahydro-1^1H-8-oxa-1(5,3)-indola-6(1,3)-pyridazina-2(1,3)-benzenacycloundecaphane-4-yl)amino)-3-methyl-1-oxobutan-2-yl)-N-methylpyrrolidine-3-carboxamide] | > 100 nM | 1 to 10 nM | 1 to 10 nM | 
4 | CCn1c(-c2cccnc2[C@H](C)OC)c2c3cc(ccc31)-c1cccc(c1)C[C@H](NC(=O)OC(C)(C)C)C(=O)N1CCC[C@H](C1)C(=O)OCC(C)(C)C2 |  |  |  | ring closure, isolated yield ([3]; from CCn1c(-c2cccnc2[C@H](C)OC)c(CC(C)(C)CO)c2cc(-c3cccc(C[C@H](NC(=O)OC(C)(C)C)C(=O)N4CCC[C@@H](C(=O)O)C4)c3)ccc21, ester bond, EDCI/HOBT/DIPEA, 9.6 mM, 16.0 h, 2 steps): 62%; ring closure, isolated yield ([3]; from CCn1c(-c2cccnc2[C@H](C)OC)c(CC(C)(C)CO)c2cc(-c3cccc(C[C@H](NC(=O)OC(C)(C)C)C(=O)N4CCC[C@@H](C(=O)O)C4)c3)ccc21, ester bond, EDCI/HOBT/DIPEA, 9.9 mM, 16.0 h, 2 steps): 56%
5 | CCn1c(-c2cccnc2[C@H](C)OC)c2c3cc(ccc31)-c1cccc(c1)C[C@H](NC(=O)OCc1ccccc1)C(=O)N1CCC[C@@H](CC(=O)OC(C)(C)C2)C1 |  |  |  | ring closure, isolated yield ([3]; from CCn1c(-c2cccnc2[C@H](C)OC)c(CC(C)(C)OC(=O)C[C@@H]2CCCNC2)c2cc(-c3cccc(C[C@H](NC(=O)OCc4ccccc4)C(=O)O)c3)ccc21, amide bond, T3P/DIPEA, 32.3 mM, 1.0 h, 3 steps): 44%
6 | CCn1c(-c2cccnc2[C@H](C)OC)c2c3cc(ccc31)-c1cccc(c1)C[C@H](NC(=O)[C@H](C(C)C)N(C)C(=O)[C@H]1CCN(C(=O)C#CCN3CCOCC3)C1)C(=O)N1CCC[C@H](C1)C(=O)OCC(C)(C)C2 (atropisomer, axis not shown) [Compound 1, (3S)—N-((2S)-1-(((6^3R,4S)-1^1-ethyl-1^2-(2-((S)-1-methoxyethyl)pyridin-3-yl)-10,10-dimethyl-5,7-dioxo-1^1H-8-oxa-1(5,3)-indola-6(1,3)-piperidina-2(1,3)-benzenacycloundecaphane-4-yl)amino)-3-methyl-1-oxobutan-2-yl)-N-methyl-1-(4-morpholinobut-2-ynoyl)pyrrolidine-3-carboxamide] | > 100 nM |  |  | IC50 ([2]; 7 day inhibition of cell proliferation, medium and compound renewed on day 3, CellTiter-Glo luminescence, read-out: MIA PaCa-2 Day 7 IC50): 10 to 100 nM
